pIC50: −log10 of the molar value. Where two headings read alike, the source gives them in different places.
Columns and labels:
[1] = system: LU2514 SCLC patient-derived xenograft; experiment: LU2514 HuPrime SCLC PDX model; assay type: in vivo, mice
Experimental: Tumor growth inhibition analysis was performed on Day 28 post treatment, the last day of dosing.

[2] = system: LU1480 SCLC patient-derived xenograft; experiment: LU1480 HuPrime SCLC PDX model; assay type: in vivo, mice
[3] = system: LXFS 573 SCLC patient-derived xenograft; experiment: LXFS 573 SCLC PDX model (monotherapy); assay type: in vivo, mice; settings: for % TGI / TGI: Day 28
[4] = system: LXFS 2156 SCLC patient-derived xenograft; experiment: LXFS 2156 SCLC PDX model; assay type: in vivo, mice; settings: 5 mg base/kg oral QD×23
[5] = system: GA0087 gastric NEC patient-derived xenograft; assay type: in vivo
[6] = system: ST18 and FREM2 gene expression in MKL-1 or MS-1 tumors; experiment: qRT-PCR of candidate PD biomarker genes in hMCC xenografts (dose-response); assay type: in vivo, mice; settings: 1, 2.5, or 5 mg/kg PO BID×4.5, both models
Experimental: Female NSG mice bearing palpable hMCC MKL-1 and MS-1 tumors were randomized into four groups of three mice each. Three groups were orally administered Compund A as monotherapy at 1, 2.5, or 5 mg/kg on a twice daily dosing schedule for nine doses (BID×4.5). The fourth group was orally administered vehicle as a control on the BID schedule. Four hours after the last dosing, tumors were collected into RNAlater and stored frozen.
Total RNA was eluted in RNase-free water and analyzed by qRT-PCR.

[7] = 4-week oral gavage pivotal toxicity study with 4-week recovery in dogs (incl. ECG, TK); assay type: in vivo, Beagle dogs; settings: for AUC(0-t): Beagle, po, AUC0-168
Experimental: The QTc interval was calculated using the Fridericia method.

[8] = Pharmacokinetics after IV and oral dose, mice; assay type: in vivo, CD-1 mice; settings: mouse
[9] = Metabolism in cryopreserved primary hepatocytes; assay type: in vitro ADME; settings: male mouse, rat, dog, monkey; mixed gender human
CYP3A4 = CYP3A4 (Homo sapiens (Human), UniProt P08684); experiment: CYP reaction phenotyping with recombinant human CYP enzymes; assay type: in vitro ADME
Chain of CYP3A4 (P08684 whole entry): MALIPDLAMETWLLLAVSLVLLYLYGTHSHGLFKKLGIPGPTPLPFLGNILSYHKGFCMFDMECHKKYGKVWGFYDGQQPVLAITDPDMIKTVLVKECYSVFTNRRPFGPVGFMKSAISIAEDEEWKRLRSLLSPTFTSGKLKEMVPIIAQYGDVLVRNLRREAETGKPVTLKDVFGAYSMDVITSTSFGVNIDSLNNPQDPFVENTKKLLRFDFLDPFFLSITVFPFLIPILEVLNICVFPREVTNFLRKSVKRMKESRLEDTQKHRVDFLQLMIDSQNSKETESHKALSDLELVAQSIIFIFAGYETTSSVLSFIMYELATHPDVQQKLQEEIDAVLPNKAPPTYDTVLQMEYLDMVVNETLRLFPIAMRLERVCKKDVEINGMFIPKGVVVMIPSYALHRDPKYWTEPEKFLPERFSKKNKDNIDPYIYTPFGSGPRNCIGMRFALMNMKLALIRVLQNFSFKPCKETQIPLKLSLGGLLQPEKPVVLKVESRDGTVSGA
From the text: The role of non-CYP enzymes in the metabolism of Compound A is yet to be ascertained.

CYP2C9 = CYP2C9 (Homo sapiens (Human), UniProt P11712); experiment: CYP inhibition in pooled human liver microsomes, CYP2C9; assay type: in vitro ADME; settings: up to 50 μM
Chain of CYP2C9 (P11712 whole entry): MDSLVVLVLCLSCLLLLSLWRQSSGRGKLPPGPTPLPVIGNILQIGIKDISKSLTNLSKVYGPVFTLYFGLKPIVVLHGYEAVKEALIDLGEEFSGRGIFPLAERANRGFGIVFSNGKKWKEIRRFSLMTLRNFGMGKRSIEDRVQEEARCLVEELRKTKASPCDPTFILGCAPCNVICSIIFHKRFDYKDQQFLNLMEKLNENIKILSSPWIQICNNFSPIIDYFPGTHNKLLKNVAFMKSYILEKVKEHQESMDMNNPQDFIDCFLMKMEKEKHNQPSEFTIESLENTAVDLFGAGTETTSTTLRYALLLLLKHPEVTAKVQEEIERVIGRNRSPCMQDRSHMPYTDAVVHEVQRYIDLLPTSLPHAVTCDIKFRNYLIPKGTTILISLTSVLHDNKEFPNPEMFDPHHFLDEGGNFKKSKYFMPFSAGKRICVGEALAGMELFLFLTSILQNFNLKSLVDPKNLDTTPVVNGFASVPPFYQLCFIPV

CYP2C19 = CYP2C19 (Homo sapiens (Human), UniProt P33261); experiment: CYP inhibition in pooled human liver microsomes, CYP2C19; assay type: in vitro ADME
Chain of CYP2C19 (P33261 whole entry): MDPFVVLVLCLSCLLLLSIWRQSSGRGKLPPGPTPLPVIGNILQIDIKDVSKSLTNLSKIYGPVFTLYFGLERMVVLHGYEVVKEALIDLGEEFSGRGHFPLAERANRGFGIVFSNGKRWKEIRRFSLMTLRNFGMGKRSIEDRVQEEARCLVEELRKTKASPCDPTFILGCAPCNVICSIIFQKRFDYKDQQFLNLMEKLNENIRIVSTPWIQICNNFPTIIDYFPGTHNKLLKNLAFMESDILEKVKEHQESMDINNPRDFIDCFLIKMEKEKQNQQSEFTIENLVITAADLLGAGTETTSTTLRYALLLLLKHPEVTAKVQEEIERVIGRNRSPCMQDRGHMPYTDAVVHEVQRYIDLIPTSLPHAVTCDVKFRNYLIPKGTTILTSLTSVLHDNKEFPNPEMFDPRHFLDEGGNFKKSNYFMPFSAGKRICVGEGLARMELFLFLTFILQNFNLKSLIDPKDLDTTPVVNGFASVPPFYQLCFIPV

CYP1A2 mRNA = experiment: CYP induction in cryopreserved human hepatocytes, CYP1A2; assay type: in vitro ADME; settings: 0.03 to 10 μM, up to 3 days
CYP2B6 mRNA = experiment: CYP induction in cryopreserved human hepatocytes, CYP2B6; assay type: in vitro ADME; settings: 0.03 to 10 μM, up to 3 days
CYP3A4 mRNA = experiment: CYP induction in cryopreserved human hepatocytes, CYP3A4; assay type: in vitro ADME; settings: 0.03 to 10 μM, up to 3 days
[10] = Predicted human pharmacokinetics (allometric scaling)
[11] = Exploratory toxicity study in mice; assay type: in vivo, CD-1 mice; settings: for reduction in neutrophil counts: 60 mg/kg/dose QOD
From the text: Additional animals were included for TK evaluation.

[12] = Exploratory toxicity study in dogs; assay type: in vivo, Beagle dogs
[13] = Beagle, dog, in vivo, po
[14] = 4-week toxicity study (no recovery period) in dogs (incl. TK)
[15] = CD-1, plasma, female, single IV dose 5 mg
[16] = CD-1, plasma, female, single oral dose 10 mg base/kg

Structure (SMILES): COc1ccc(-c2c(-c3ccc(C#N)c(F)c3)nc(N3CCC(N)CC3)n(C)c2=O)cc1F [Compound A, 4-[2-(4-amino-piperidin-1-yl)-5-(3-fluoro-4-methoxy-phenyl)-1-methyl-6-oxo-1,6-dihydro-pyrimidin-4-yl]-2-fluoro-benzonitrile]
- Median Tumor Volume Day 28 ([1]; 5 mg base/kg PO QDx28): 1244.8 mm^3
- Median Tumor Volume Diff. (Day 28 - Day 1) ([1]; 5 mg base/kg PO QDx28): 1071.6 mm^3
- Median Tumor Volume Day 28 ([1]; 10 mg base/kg PO QDx28): 906.0 mm^3
- Median Tumor Volume Diff. (Day 28 - Day 1) ([1]; 10 mg base/kg PO QDx28): 732.3 mm^3
- mean body weight loss ([1]; both LU2514 studies): < 10%
- Median Tumor Volume Day 21 ([2]; 5 mg base/kg PO QDx21): 490.1 mm^3
- Median Tumor Volume Diff. (Day 21 - Day 1) ([2]; 5 mg base/kg PO QDx21): 400.6 mm^3
- Median Tumor Volume Day 21 ([2]; 10 mg base/kg PO QDx21): 321.4 mm^3
- Median Tumor Volume Diff. (Day 21 - Day 1) ([2]; 10 mg base/kg PO QDx21): 234.3 mm^3
- % TGI ([2]; 10 mg base/kg PO QDx21, Day 21): 72%
- TGI ([2]; 10 mg base/kg oral for 21 days): 72%
- Median Tumor Volume Day 28 ([3]; 5 mg base/kg PO QDx28): 308.3 mm^3
- Median Tumor Volume Diff. (Day 28 - Day 0) ([3]; 5 mg base/kg PO QDx28): 199.9 mm^3
- % TGI ([3]; 5 mg base/kg PO QDx28): 78%
- TGI ([3]; 5 mg base/kg oral): 78%
- Median Tumor Volume Day 28 ([3]; 7.5 mg base/kg PO QDx28): 496.6 mm^3
- Median Tumor Volume Diff. (Day 28 - Day 0) ([3]; 7.5 mg base/kg PO QDx28): 383.4 mm^3
- Median Tumor Volume Day 28 ([3]; 10 mg base/kg PO QDx28): 376.8 mm^3
- Median Tumor Volume Diff. (Day 28 - Day 0) ([3]; 10 mg base/kg PO QDx28): 263.0 mm^3
- % TGI ([3]; 10 mg base/kg PO QDx28): 71%
- TGI ([3]; 10 mg/kg oral): 71%
- mean body weight loss ([3]; mouse, in vivo): ≤ 3%
- TGI [4]: −7%
- Median Tumor Volume Day 53 ([5]; 5 mg/kg PO QD x 53): 673.2 mm^3
- Median Tumor Volume Diff (Day 53 - Day 0) ([5]; 5 mg/kg PO QD x 53): 863.3 mm^3
- tolerability ([5]; 1.5 and 5 mg/kg oral QD): acceptably tolerated
- ST18 and FREM2 change in gene expression in vivo [6]: ≥ 2 fold
- NOEL for CV and respiratory changes ([7]; BIW oral): 0.375 mg base/kg/dose
- HNSTD and NOAEL ([7]; QW or BIW dose schedule): < 0.375 mg base/kg/dose
- NOEL for CV and respiratory changes ([7]; QW oral): 0.75 mg base/kg/dose
- reversibility of findings ([7]; dog, in vivo): complete recovery
- AUC(0-t) ([7]; female, dog, in vivo): 435 ng·h/mL
- AUC(0-t) ([7]; male, dog, in vivo): 503 ng·h/mL
- moribund euthanasia ([7]; weekly oral 0.375 to 1.5 mg base/kg, Days 13 to 23): 11 animals
- primary toxicities ([7]; ≥0.375 mg base/kg/dose, QW or BIW): mucosal ulceration, acute and/or subacute inflammation, and mucosal epithelial atrophy of GI tract tissues
- half-life ([8]; CD-1 (mice), Sprague Dawley (rats), plasma, IV, rodents (mice, rats), read-out: half-life): 2 to 4 h
- Tmax ([8]; CD-1, Sprague Dawley, Beagle, plasma, oral, across mice, rats, dogs, monkeys, read-out: median tmax): 0.5 to 6 h
- bioavailability ([8]; CD-1, Sprague Dawley, plasma, po, rodents, read-out: oral bioavailability): 28 to 74%
- AUC(0-inf) [8, 15]: 2660 ng·h/mL
- AUC(0-t) [8, 15]: 2220 ng·h/mL
- clearance [8, 15]: 32 mL/min/kg
- Vd ([8]; CD-1, plasma, female, single IV dose 5 mg, read-out: Vss): 7.51 L/kg
- half-life ([8]; CD-1, plasma, female, single IV dose 5 mg, read-out: t1/2, z (converted)): 3.8 h
- AUC(0-t) [8, 16]: 2010 ng·h/mL
- Cmax [8, 16]: 510 ng/mL
- bioavailability ([8]; CD-1, plasma, female, single oral dose 10 mg base/kg, read-out: % F): 38%
- half-life ([8]; CD-1, plasma, female, single oral dose 10 mg base/kg, read-out: t1/2, z (converted)): 1.7 h
- Tmax ([8]; CD-1, plasma, female, single oral dose 10 mg base/kg, read-out: tmax): 0.5 h
- metabolic stability in hepatocytes [9]: greater in rat and dog followed by human and monkeys while being least stable in mouse hepatocytes
- role of CYP3A4 in metabolism (CYP3A4): predominantly responsible for the oxidative metabolism
- direct inhibition of CYP2C9 (CYP2C9): little to no direct inhibitory effect
- pIC50 (CYP2C19): < 4.30
- increase in CYP1A2 mRNA over vehicle control (CYP1A2 mRNA): < 2 fold
- increase in CYP2B6 mRNA over vehicle control (CYP2B6 mRNA): < 2 fold
- increase in CYP3A4 mRNA over vehicle control (CYP3A4 mRNA): < 2 fold
- predicted steady state systemic exposure (AUCt) ([10]; 1.25 mg oral QW, 60-kg human, 80% oral bioavailability assumed): 29 ng·h/mL
- predicted clearance ([10]; allometric scaling): 9.4 mL/min/kg
- predicted volume of distribution ([10]; allometric scaling): 17.6 L/kg
- increase in platelets on Day 8 ([11]; 10 mg/kg/day 5 days on/2 days off, vs end of first dosing period): > 2 fold
- reduction in neutrophil counts ([11]; females): 66%
- reduction in neutrophil counts ([11]; males): 83%
- increased spleen weights ([11]; 30 or 60 mg/kg/dose 5 days on/2 days off): up to 2 fold
- greatest reduction in neutrophil counts ([11]; 5 days on/2 days off schedule, vs concurrent controls and pre-study values): approximately 90%
- circulating platelets ([11]; all dose levels, end of study): reduced
- platelet counts ([12]; 0.25 mg/kg/dose): no reduction in platelet counts
- Compound A-related effects ([12]; 0.25 mg/kg/dose QOD): no Compound A-related effects
- platelet counts ([12]; 0.5 mg/kg/dose (both schedules) and 1 mg/kg/dose, most dogs): below 25,000 /μL
- body weight loss ([12]; one female, 0.5 mg/kg/day 5 days on/2 days off, sacrificed moribund Day 12): 10.8%
- AUC0-96 ([13]; female): 127 ng·h/mL
- Cmax ([13]; female): 5.77 ng/mL
- AUC0-96 ([13]; female, 0.25 mg/kg): 272 ng·h/mL
- Cmax ([13]; female, 0.25 mg/kg): 11.5 ng/mL
- AUC0-96 ([13]; female, 0.5 mg/kg): 618 ng·h/mL
- AUC0-96 ([13]; male): 114 ng·h/mL
- Cmax ([13]; male): 5.81 ng/mL
- AUC0-96 ([13]; male, 0.25 mg/kg): 302 ng·h/mL
- Cmax ([13]; male, 0.25 mg/kg): 10.5 ng/mL
- AUC0-96 ([13]; male, 0.5 mg/kg): 653 ng·h/mL
- HNSTD ([14]; Q2W administration): 0.5 mg base/kg/dose
- NOAEL ([14]; Q2W administration): < 0.5 mg base/kg/dose
- NOAEL ([14]; QW administration): 0.125 mg base/kg/dose
- HNSTD ([14]; QW dosing): 0.25 mg base/kg/dose

From patent publication US10328077B2 (CELGENE CORPORATION, priority 2016, dated 2019)
